Test results from patent publication US20220402925A1, “COMPOUNDS AND METHODS FOR THE TREATMENT OF CYSTIC FIBROSIS” (Flatley Discovery Lab, LLC, priority 2019, published 2022).

Biological target: T1, F508del CFTR (Homo sapiens, UniProt P13569, DEL508-508)
T1 construct: Primary CF airway epithelial cells were obtained from the UNC Cystic Fibrosis Tissue Procurement and Cell Culture Core; host or cells: primary CF airway epithelial cells
Test: Equivalent current assay in primary CF airway epithelial cells (Corrector Activity, NAUC normalized to 3 μM VX809)
Format: cell-based
Conditions: NAUC as % of positive control (VX-809)
Method: Primary CF airway epithelial cells were obtained from the UNC Cystic Fibrosis Tissue Procurement and Cell Culture Core. The cells are grown at 37° C. in a Heracell 150i incubator using growth media (BEGM, Fischer). Cells were then transferred to differentiation media (airway liquid interface media (ALI) media; Lechner J F and LaVeck M A, J. Tissue Culture Methods 1985, 9: 43-48) for a minimum of 4 weeks on coated Costar transwells. Two days before the assay the mucus on the apical surface of the cells was aspirated after incubating with 200 μL of differentiation media for at least thirty (30) minutes. One day before the assay test compounds were added to the basolateral surface of the cells at various test concentrations dissolved in DMSO. Duplicate wells were prepared giving a n=4 or n=6 protocol.
Cells were treated for 24 hours with various combinations and concentrations of the test articles, reference standard (3 μM VX809, positive control). Compounds stock solutions were prepared in DMSO and diluted 1/1000 into ALI media to their final assay concentration. Cells were treated with combination solutions (2 mL of each dilution) and incubated at 37° C. for 24 h.
For the equivalent current assay, cells on six Transwell (24-well) plates were treated. Each Transwell plate was filled with 200 μl of HBS on the apical surface and 2 ml on the basolateral surface. Plates were placed horizontally in a heated mount at 37° C. and equilibrated for 30 minutes. Resting current was measured for 15 min and then blocked by the apical addition of 5 μM benzamil. After 20 min, CFTR activator (10 μM forskolin) and potentiator (either 1 μM VX-770 or 3 μM FDL176) were added to both the apical and basolateral side to stimulate CFTR. An increase in chloride current is seen as an upward deflection of the trace. After another 60 min, CFTR-172 (a CFTR inhibitor, 20 μM) and/or bumetanide (20 uM) was added to block CFTR mediated chloride current.
The raw data, voltage vs. time and resistance vs. time for the equivalent current assay (sampling interval: 6 minutes) were transferred to Excel (Microsoft Office Professional, version 14.0.7106.5003) for analysis. CFTR specific current was computed from I=V/R (Ohms Law), the average amplitude of the increase in current elicited upon addition forskolin and ending upon addition of the CFTR channel specific blocker CFTR-172. This average is equivalent to the sum of the average forskolin activated and the average VX770-potentiated currents. The average current measured in vehicle (0.1% DMSO) treated cells, IV, was subtracted from the current for the test article, ITA, or from the corrector reference standard VX809 (3 uM, ISTD). For replicate measurements, the averaged vehicle subtracted response for the test article, was normalized to the averaged vehicle subtracted response of the reference corrector VX809 (3 μM).
INSC=(ITA−IV)(ave)/(ISTD−IV)(ave) (Equation 1)
A second endpoint, for the equivalent current assay, evaluated was NAUC, the normalized area under the curve (AUC) measuring the response after addition of forskolin and potentiator to the time point right before the addition of the CFTR inhibitor. The AUC is effectively the average response multiplied by the duration of the response. The AUC of the test article, AUCTA was then corrected by subtracting the average vehicle response, AUCV,ave over the same time range, and normalized as for the inhibitor-sensitive current to the difference of the corrector reference standard VX809 (3 μM VX809r,ave and the vehicle response:
NAUCTA=[AUCTA−AUCV,ave]/[AUCVx809r,ave−AUCV,ave] (Equation 2).
The normalized value for DMSO is 0.0 and for VX-809 alone is 1.0 for both of these equations.
Experiments were run with a minimum of n=4 replicates per concentration. Since the distribution for the ratio of two normal distributions is a Cauchy distribution, the median value must be used for the average and the average deviation must be used for the error of all normalized data. […]

T1 sequence (P13569 with tags, fused parts or gaps DEL508-508): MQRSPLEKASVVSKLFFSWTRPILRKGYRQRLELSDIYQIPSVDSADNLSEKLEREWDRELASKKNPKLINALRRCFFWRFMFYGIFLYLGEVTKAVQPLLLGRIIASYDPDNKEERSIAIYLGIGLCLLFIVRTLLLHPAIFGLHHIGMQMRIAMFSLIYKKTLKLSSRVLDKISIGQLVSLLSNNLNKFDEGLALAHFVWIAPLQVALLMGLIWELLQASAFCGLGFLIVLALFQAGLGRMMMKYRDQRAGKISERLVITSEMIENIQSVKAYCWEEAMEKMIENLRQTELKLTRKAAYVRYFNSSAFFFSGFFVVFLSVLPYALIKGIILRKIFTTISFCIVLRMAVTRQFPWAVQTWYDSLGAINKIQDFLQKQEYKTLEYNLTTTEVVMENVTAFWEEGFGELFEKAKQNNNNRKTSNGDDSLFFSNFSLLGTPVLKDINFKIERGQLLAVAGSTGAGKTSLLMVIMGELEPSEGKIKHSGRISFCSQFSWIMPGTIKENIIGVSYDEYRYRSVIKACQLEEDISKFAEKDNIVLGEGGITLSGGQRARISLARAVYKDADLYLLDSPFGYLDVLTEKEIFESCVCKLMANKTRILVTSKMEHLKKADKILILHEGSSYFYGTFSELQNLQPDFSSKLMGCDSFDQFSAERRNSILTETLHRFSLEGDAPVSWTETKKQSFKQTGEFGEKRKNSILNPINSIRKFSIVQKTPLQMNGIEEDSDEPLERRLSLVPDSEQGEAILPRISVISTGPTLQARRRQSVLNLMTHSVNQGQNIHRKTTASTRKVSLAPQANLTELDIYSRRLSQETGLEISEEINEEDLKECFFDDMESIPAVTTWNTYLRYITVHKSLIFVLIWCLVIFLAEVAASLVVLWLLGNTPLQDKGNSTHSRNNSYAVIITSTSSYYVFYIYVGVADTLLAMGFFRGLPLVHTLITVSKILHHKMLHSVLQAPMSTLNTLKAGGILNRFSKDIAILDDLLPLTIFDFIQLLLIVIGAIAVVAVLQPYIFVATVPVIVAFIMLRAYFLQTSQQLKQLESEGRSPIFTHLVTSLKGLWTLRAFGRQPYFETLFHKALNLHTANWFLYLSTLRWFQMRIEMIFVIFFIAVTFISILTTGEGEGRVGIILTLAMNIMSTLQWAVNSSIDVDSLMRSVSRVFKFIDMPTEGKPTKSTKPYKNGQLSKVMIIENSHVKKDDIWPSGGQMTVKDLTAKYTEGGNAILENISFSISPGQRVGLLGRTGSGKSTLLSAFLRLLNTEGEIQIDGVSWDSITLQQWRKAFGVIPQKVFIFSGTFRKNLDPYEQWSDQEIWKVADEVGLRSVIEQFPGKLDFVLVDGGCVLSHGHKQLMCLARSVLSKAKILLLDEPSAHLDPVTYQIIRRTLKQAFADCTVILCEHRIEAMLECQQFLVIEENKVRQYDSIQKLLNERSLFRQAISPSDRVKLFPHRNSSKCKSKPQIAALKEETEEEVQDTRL

Row | Structure (SMILES) | Corr Activity (NAUC)
1 | Cc1cc2c(cc1N(C)C(=O)Cn1nc(-c3cc(F)cc(C#N)c3)c3occ(C(F)(F)F)c3c1=O)OC(F)(F)O2 [Example 178] | + (NAUC<40% of positive control)
2 | CCN(C(=O)Cn1nc(-c2cc(F)cc(C#N)c2)c2oc(C3CC3)cc2c1=O)c1ccc2c(c1)OC(F)(F)O2 [Example 225] | +++ (NAUC>70% of positive control)
3 | CCN(C(=O)Cn1nc(-c2cc(C)cc(C#N)c2)c2oc(C(=O)NC(C)(C)C(F)(F)F)cc2c1=O)c1ccc2c(c1)OC(F)(F)O2 [Example 150] | +++ (NAUC>70% of positive control)
4 | CCN(C(=O)Cn1nc(-c2cc(F)cc(OC)c2)c2occc2c1=O)c1ccc2c(c1)OC(F)(F)O2 [Example 47] | +++ (NAUC>70% of positive control)
5 | COc1ccc2cc(-c3nn(CC(=O)N(c4ccc5c(c4)OC(F)(F)O5)C4CC4)c(=O)c4nc[nH]c34)ccc2c1 [Example 412] | ++ (NAUC 70-40% of positive control)
6 | CCN(C(=O)Cn1nc(-c2ccc(C(F)(F)F)c(C(F)(F)F)c2)c2[nH]cnc2c1=O)c1ccc2c(c1)OC(F)(F)O2 [Example 345] | + (NAUC<40% of positive control)
7 | CCN(C(=O)Cn1nc(-c2cc(Cl)cc(C#N)c2)c2oc(C(=O)NC(C)(C)C)cc2c1=O)c1cc2c(cc1C)OC(F)(F)O2 [Example 137] | +++ (NAUC>70% of positive control)
8 | CCN(C(=O)Cn1nc(-c2cc(C(C)(C)C)cc(C(C)(C)C)c2)c2[nH]cnc2c1=O)c1ccc2c(c1)OC(F)(F)O2 [Example 280] | + (NAUC<40% of positive control)
9 | N#Cc1cccc(-c2nn(CC(=O)N(c3ccc4c(c3)OC(F)(F)O4)C3CCC3)c(=O)c3ccoc23)c1 [Example 33, 2-(7-(3-cyanophenyl)-4-oxofuro[2,3-d]pyridazin-5(4H)-yl)-N-cyclobutyl-N-(2,2-difluorobenzo[d][1,3]dioxol-5-yl)acetamide] | +++ (NAUC>70% of positive control)
10 | CN(C(=O)Cn1nc(-c2cccc(F)c2)c2sccc2c1=O)c1ccc2c(c1)CCC2 [Example 3] | +++ (NAUC>70% of positive control)
11 | CN(C(=O)Cn1nc(-c2cccc(Cl)c2)c2oc(NC(=O)OC(C)(C)C)cc2c1=O)c1ccc2c(c1)OC(F)(F)O2 [Example 181, tert-butyl (7-(3-chlorophenyl)-5-(2-((2,2-difluorobenzo[d][1,3]dioxol-5-yl)(methyl)amino)-2-oxoethyl)-4-oxo-4,5-dihydrofuro[2,3-d]pyridazin-2-yl)carbamate] | +++ (NAUC>70% of positive control)
12 | CCN(C(=O)Cn1nc(-c2cc(Cl)cc(OC)c2)c2occc2c1=O)c1ccc2c(c1)OC(F)(F)O2 [Example 112] | +++ (NAUC>70% of positive control)
13 | CN(C(=O)Cn1nc(-c2cccc(C#N)c2)c2oc(CN3CCCC3)cc2c1=O)c1ccc2c(c1)OC(F)(F)O2 [Example 200] | ++ (NAUC 70-40% of positive control)
14 | CCN(C(=O)Cn1nc(-c2cc(C)cc(C#N)c2)c2[nH]cnc2c1=O)c1ccc2c(c1)OC(F)(F)O2 [Example 246] | +++ (NAUC>70% of positive control)
15 | CCN(C(=O)Cn1nc(-c2ccc3c(ccn3Cc3ccccc3)c2)c2[nH]cnc2c1=O)c1ccc2c(c1)OC(F)(F)O2 [Example 296] | + (NAUC<40% of positive control)
16 | CN(C(=O)Cn1nc(-c2cccc(Cl)c2)c2oc(C(=O)NCCO)cc2c1=O)c1ccc2c(c1)OC(F)(F)O2 [Example 212] | + (NAUC<40% of positive control)
17 | Cc1cc(C#N)cc(-c2nn(CC(=O)N3CCCc4c3ccc3c4OC(F)(F)O3)c(=O)c3ccoc23)c1 [Example 163] | +++ (NAUC>70% of positive control)
18 | CN(C)c1ccc(-c2nn(CC(=O)N(c3ccc4c(c3)OC(F)(F)O4)C3CC3)c(=O)c3nc[nH]c23)cc1C#N [Example 486] | +++ (NAUC>70% of positive control)
19 | CCN(C(=O)Cn1nc(-c2cc(C#N)cc(C(C)(C)C)c2)c2oc(C(=O)NC(C)(C)C)cc2c1=O)c1ccc2c(c1)OC(F)(F)O2 [Example 130] | +++ (NAUC>70% of positive control)

Row | Structure (SMILES) | Corr Activity (NAUC)
20 | O=C(Cn1nc(-c2ccc(C(F)(F)F)c(Cl)c2)c2[nH]cnc2c1=O)N(c1ccc2c(c1)OC(F)(F)O2)C1CC1 [Example 448] | + (NAUC<40% of positive control)
21 | CN(C(=O)Cn1nc(-c2cc(C#N)cc(C(F)F)c2)c2occc2c1=O)c1ccc2c(c1F)OC(F)(F)O2 [Example 101] | +++ (NAUC>70% of positive control)
22 | CN(C(=O)Cn1nc(-c2cccc(C(C)(C)C)c2)c2occc2c1=O)c1ccc2c(c1)OC(F)(F)O2 [Example 87] | + (NAUC<40% of positive control)
23 | Cc1nc2ccc(N(C)C(=O)Cn3nc(-c4cccc(F)c4)c4sc(C)nc4c3=O)cc2o1 [Example 19] | +++ (NAUC>70% of positive control)
24 | CCN(C(=O)Cn1nc(-c2cccc(Cl)c2)c2oc(C(=O)NC(C)(C)C)cc2c1=O)c1ccc2c(c1)OC(F)(F)O2 [Example 120] | +++ (NAUC>70% of positive control)
25 | CCN(C(=O)Cn1nc(-c2cccc(C#N)c2)c2oc(C(=O)NC(C)(C)C)cc2c1=O)c1ccc2c(c1)OC(F)(F)O2 [Example 121] | +++ (NAUC>70% of positive control)
26 | CCN(C(=O)Cn1nc(-c2cccc(C#N)c2)c2occc2c1=O)c1ccc(C(F)(F)F)cc1 [Example 61] | + (NAUC<40% of positive control)
27 | CCN(C(=O)Cn1nc(-c2cccc(F)c2)c2[nH]ncc2c1=O)c1ccc2c(c1)OC(F)(F)O2 [Example 499] | + (NAUC<40% of positive control)
28 | CCN(C(=O)Cn1nc(-c2cc(C#N)cc(OC)c2)c2oc(C3CCC3)cc2c1=O)c1ccc2c(c1)OC(F)(F)O2 [Example 239] | + (NAUC<40% of positive control)
29 | CN(C(=O)Cn1nc(-c2cc(C#N)cc(C(F)(F)F)c2)c2occc2c1=O)c1ccc2c(c1)OC(F)(F)O2 [Example 98] | ++ (NAUC 70-40% of positive control)
30 | Cc1c(N(C)C(=O)Cn2nc(-c3cc(Cl)cc(C#N)c3)c3oc(C(=O)NC(C)(C)C)cc3c2=O)ccc2c1OC(F)(F)O2 [Example 141] | +++ (NAUC>70% of positive control)
31 | Cc1nc2ccc(N(C)C(=O)Cn3nc(-c4cccc(C#N)c4)c4oc(C(=O)NC(C)C)cc4c3=O)cc2o1 [Example 156] | ++ (NAUC 70-40% of positive control)
32 | CCN(C(=O)Cn1nc(-c2cccc(OC(F)(F)F)c2)c2oc(C(=O)NC(C)(C)C)cc2c1=O)c1ccc2c(c1)OC(F)(F)O2 [Example 124] | ++ (NAUC 70-40% of positive control)
33 | Cc1cc2c(=O)n(CC(=O)N(c3ccc4c(c3)OC(F)(F)O4)C3CC3)nc(-c3cc(F)cc(F)c3)c2o1 [Example 78] | +++ (NAUC>70% of positive control)
34 | Cc1c(N(C)C(=O)Cn2nc(-c3cc(Cl)cc(C#N)c3)c3occc3c2=O)ccc2c1OC(F)(F)O2 [Example 171] | +++ (NAUC>70% of positive control)
35 | CCN(C(=O)Cn1nc(-c2cccc(Cl)c2)c2sccc2c1=O)c1ccc2nc(C)oc2c1 [Example 4] | +++ (NAUC>70% of positive control)
36 | O=C(Cn1nc(-c2cc(Cl)cc(N3CCCC3)c2)c2[nH]cnc2c1=O)N(c1ccc2c(c1)OC(F)(F)O2)C1CC1 [Example 400] | +++ (NAUC>70% of positive control)
37 | CCN(C(=O)Cn1nc(-c2ccc3c(ccn3C)c2)c2[nH]cnc2c1=O)c1ccc2c(c1)OC(F)(F)O2 [Example 290] | + (NAUC<40% of positive control)
38 | CCN(C(=O)Cn1nc(-c2cccc(F)c2)c2oc(C(=O)NC(C)(C)C)cc2c1=O)c1ccc2c(c1)OC(F)(F)O2 [Example 119] | +++ (NAUC>70% of positive control)
